From PubChem BioAssay (NCI)
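The compound was tested at five concentrations on cells cultured in 96-well plates, with a 48-hour exposure period. Abbreviation: GI50, concentration required for 50% inhibition of growth. TGI denotes the concentration required for complete inhibition of growth.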

What was measured:
Assay in all cases: DTP human tumour cell line panel, 48 h
[1] = system: SK-MEL-28 melanoma
[2] = system: SR leukemia
[3] = system: UO-31 renal
[4] = system: K-562 leukemia
[5] = system: A549 NSCLC
[6] = system: HT29 colon
[7] = system: RXF 393 renal
[8] = system: SNB-75 CNS
[9] = system: HCT-15 colon
[10] = system: DU-145 prostate
[11] = system: MDA-MB-231 breast
[12] = system: UACC-257 melanoma
[13] = system: HOP-62 NSCLC
[14] = system: M14 melanoma
[15] = system: UACC-62 melanoma
[16] = system: MCF7 breast
[17] = system: HS 578T breast
[18] = system: CCRF-CEM leukemia
[19] = system: NCI/ADR-RES ovarian
[20] = system: OVCAR-5 ovarian
[21] = system: SF-295 CNS
[22] = system: SK-MEL-2 melanoma
[23] = system: PC-3 prostate
[24] = system: CAKI-1 renal
[25] = system: MDA-MB-435
[26] = system: LOX IMVI melanoma
[27] = system: RPMI-8226 leukemia
[28] = system: BT-549 breast
[29] = system: SK-OV-3 ovarian
[30] = system: SF-539 CNS
[31] = system: MOLT-4 leukemia
[32] = system: U251 CNS
[33] = system: T-47D breast
[34] = system: SK-MEL-5 melanoma
[35] = system: NCI-H226 lung
[36] = system: KM12 colon
[37] = system: 786-0 renal
[38] = system: NCI-H460 lung
[39] = system: SN12C renal
[40] = system: SF-268 CNS
[41] = system: HCC-2998 colon
[42] = system: OVCAR-8 ovarian
[43] = system: IGROV1 ovarian
[44] = system: HL-60(TB) leukemia
[45] = system: COLO 205 colon
[46] = system: A498 renal
[47] = system: SW-620 colon
[48] = system: OVCAR-4 ovarian
[49] = system: HCT-116 colon
[50] = system: NCI-H522 lung
[51] = system: TK-10 renal
[52] = system: ACHN renal
[53] = system: MALME-3M melanoma
[54] = system: HOP-92 NSCLC
[55] = system: EKVX NSCLC
[56] = system: SNB-19 CNS
[57] = system: NCI-H23 lung

O=C(NNc1nc2cc(F)cc(F)c2n2cccc12)c1cnccn1
GI50 [1]: 0.549 µM
TGI [1]: 13.5 µM
GI50 [2]: 0.0801 µM
TGI [2]: > 87.8 µM
GI50 [3]: 0.107 µM
TGI [3]: 2.93 µM
GI50 [4]: 0.364 µM
TGI [4]: > 100 µM
GI50 [5]: 0.288 µM
TGI [5]: 11.3 µM
GI50 [6]: 0.571 µM
TGI [6]: 8.73 µM
GI50 [7]: 0.659 µM
TGI [7]: 4.77 µM
GI50 [8]: 1.13 µM
TGI [8]: 9.37 µM
GI50 [9]: 0.106 µM
TGI [9]: 21.3 µM
GI50 [10]: 0.457 µM
TGI [10]: 13.7 µM
GI50 [11]: 0.807 µM
TGI [11]: 12.3 µM
GI50 [12]: 0.587 µM
TGI [12]: 3.43 µM
GI50 [13]: 0.147 µM
TGI [13]: 4.17 µM
GI50 [14]: 0.279 µM
TGI [14]: 2.85 µM
GI50 [15]: 0.407 µM
TGI [15]: 3.85 µM
GI50 [16]: 0.353 µM
TGI [16]: 7.61 µM
GI50 [17]: 1.74 µM
TGI [17]: 24.1 µM
GI50 [18]: 0.163 µM
TGI [18]: > 100 µM
GI50 [19]: 0.278 µM
TGI [19]: 5.22 µM
GI50 [20]: 0.715 µM
TGI [20]: 14.4 µM
GI50 [21]: 0.25 µM
TGI [21]: 6.45 µM
GI50 [22]: 0.893 µM
TGI [22]: 4.37 µM
GI50 [23]: 0.448 µM
TGI [23]: 13.5 µM
GI50 [24]: 0.34 µM
TGI [24]: 6.66 µM
GI50 [25]: 0.61 µM
TGI [25]: 13.5 µM
GI50 [26]: 0.211 µM
TGI [26]: 5.93 µM
GI50 [27]: 0.379 µM
TGI [27]: > 100 µM
GI50 [28]: 1.12 µM
TGI [28]: 7.68 µM
GI50 [29]: 0.539 µM
TGI [29]: 7.27 µM
GI50 [30]: 0.436 µM
TGI [30]: 10.3 µM
GI50 [31]: 0.291 µM
TGI [31]: > 100 µM
GI50 [32]: 0.172 µM
TGI [32]: 8.92 µM
GI50 [33]: 0.403 µM
TGI [33]: 12.6 µM
GI50 [34]: 1.05 µM
TGI [34]: 5.76 µM
GI50 [35]: 1.12 µM
TGI [35]: 6.89 µM
GI50 [36]: 0.311 µM
TGI [36]: 12.6 µM
GI50 [37]: 0.371 µM
TGI [37]: 4.02 µM
GI50 [38]: 0.178 µM
TGI [38]: 3.01 µM
GI50 [39]: 0.641 µM
TGI [39]: 15 µM
GI50 [40]: 0.365 µM
TGI [40]: 14.5 µM
GI50 [41]: 0.564 µM
TGI [41]: 14.9 µM
GI50 [42]: 0.279 µM
TGI [42]: 4.91 µM
GI50 [43]: 0.206 µM
TGI [43]: 10.7 µM
GI50 [44]: 0.263 µM
GI50 [45]: 0.324 µM
TGI [45]: 4.56 µM
GI50 [46]: 1.37 µM
TGI [46]: 5.57 µM
GI50 [47]: 0.402 µM
TGI [47]: 14.4 µM
GI50 [48]: 0.302 µM
TGI [48]: 8.99 µM
GI50 [49]: 0.297 µM
TGI [49]: 6.79 µM
GI50 [50]: 0.392 µM
TGI [50]: 7.5 µM
GI50 [51]: 0.613 µM
TGI [51]: 10.5 µM
GI50 [52]: 0.239 µM
TGI [52]: 10.6 µM
GI50 [53]: 0.904 µM
TGI [53]: 10.4 µM
GI50 [54]: 0.851 µM
TGI [54]: 7.35 µM
GI50 [55]: 0.32 µM
TGI [55]: 12 µM
GI50 [56]: 0.426 µM
TGI [56]: 16.9 µM
GI50 [57]: 0.872 µM
TGI [57]: 15.8 µM
